In data set [1] the test system is hTERT fibroblasts. Description: MTT cytotoxicity on hTERT fibroblasts, 4 days. The class given is cell-based, human. The settings on record: 10 μM, 4 days. Here is the method:
(§1) The same assay was performed for hTERT fibroblasts, incubated for 4 days with different concentrations of 3. Absorbance was read at 540 nm (reference wavelength: 700 nm) in a plate reader (Synergy H1 Hybrid Reader, BioTek). Average absorbance from background wells (without cells, treated as the samples) was subtracted out, to obtain corrected values (A540 corr). The percentage of cell viability was calculated as follows:
(§2) Cellviability(%)=A540corrtreatedcells/A540corruntreatedcells×100
(§3) CC50 values were obtained by nonlinear regression analysis of cell viability (%) vs. log[compound] with a variable Hill’s slope, using the GraphPad Prism 5.03 software. Each concentration was assayed in triplicates, in three independent sets of experiments. To avoid effects of evaporation, outer wells were not used.

A short description of data set [2]: MTT cytotoxicity on hTERT fibroblasts, 4 days. The class given is cell-based, human. The note with it: human, MTT, 4 days of incubation (Table 1 footnote b). Here is the method: as §1, §2, §3
Data set [3] can be described thus: MTT cytotoxicity on Vero host cells, 2 days. The note with it: African green monkey (Cercopithecus aethiops), Vero cells (monolayers), CC50, Vero cells, 2 days of treatment (Table 1 footnote a).
Data set [4] relates to Vero cells. Kind of data set: MTT cytotoxicity on Vero host cells, 2 days. The note with it: Vero cells, 2 days of treatment (Table 1 footnote a).

With `COc1ccc2c3ccnc(C)c3n(C)c2c1` [Compound 3, 9-methyl-harmine], the “impact on fibroblast metabolism (MTT)” value in data set [1] was “no impact”. Moreover, the half-maximal cytotoxic concentration (CC50) at 4 days in data set [2] is 31 µM. In data set [3], this molecule showed a CC50 at 2 days of around 60 µM. The midpoint of cytotoxicity in data set [4], the CC50, lay at 59 ± 8 µM.

These data come from article PMC8375385, “In vitro Effect of Harmine Alkaloid and Its N-Methyl Derivatives Against Toxoplasma gondii” (Frontiers in Microbiology, 2021).
